Data set [1] has as its target recombinant human CYP3A4 enzyme (Homo sapiens, UniProt P08684). The data set is described as follows: CYP3A4 incubation assay. The format is in vitro ADME. The method, then: Example 24. CYP3A4 Incubation Assay
Compounds (final concentration […]) were incubated in 100 mM phosphate buffer containing 100 pmol/mL recombinant human CYP3A4 enzyme for 0, 5, 10, 15 and 25 minutes.
Testosterone was used as positive control. Reaction was initiated by the addition of NADPH (final concentration […]) and carried out at 37° C. The reaction was stopped by the addition of 4 volumes of cold acetonitrile (with 100 nM alprazolam, 200 nM labetalol, 200 nM imipramine and 2 μM ketoprofen as internal standards). Samples were centrifuged at 3,220 g for 40 minutes to precipitate protein. 70 μL supernatant was transferred to the analysis plate containing 110 μL of acetonitrile for LC-MS/MS analysis.
The following table indicates the percentage remaining for the indicated examples after incubation with recombinant Human CYP3A4 after 25 minutes under the same conditions as described for Example […].

The target in data set [2] is T1, TRPA1 channels (Homo sapiens, UniProt O75762).
T1 construct: expressed in transfected cells; host or cells: CHO
The data set is described as follows: TRP Family FLIPR Assay, TRPA1. Format: cell-based. The following applies: CHO cells. The method, then: (§1) The compound of Example 5 was tested for selectivity against a panel of Human TRP family ion channels in a TRP Family FLIPR Assay as described below. • 1. TRPC3 channels (human TRPC3 variant 1 gene, expressed in HEK293 cells). • 2. TRPC4 channels (human TRPC4 gene, expressed in HEK293 cells). • 3. TRPC5 channels (human TRPC5 gene, expressed in HEK293 cells). • 4. TRPC6 channels (human TRPC6 gene, expressed in HEK293 cells). • 5. TRPM2 channels (human TRPM2 gene, transiently expressed in HEK293 cells). • 6. TRPM3 channels (human TRPM3 gene, transiently expressed in HEK293 cells). • 7. TRPM4 channels (human TRPM4 gene, expressed in CHO cells). • 8. […]
(§2) Data acquisition was performed via the FLIPR Control software supplied with the FLIPR System (MDS-AT) and data was analyzed using Microsoft Excel (Microsoft Corp., Redmond, WA) or GraphPad Prism. […]
(§3) [formula] where Base is the response at low concentrations of test article, Max is the maximum response at high concentrations, xhalf the EC50, or IC50, the concentration of test article producing either half-maximal activation or inhibition, and rate is the Hill coefficient. […] No assumptions about the fit parameters was made; the fit parameters were determined by the algorithm.
(§4) The effect of each test article was evaluated at eight (8) concentrations: 0.003, 0.01, 0.03, 0.1, 0.3, 1, 3 and 10 μM, n≤4 wells/concentration). […]

For data set [3], the target named is T2, TRPV2 channels (Homo sapiens, UniProt Q9Y5S1).
T2 construct: expressed in transfected cells; host or cells: HEK293 (transient)
T2 sequence (Q9Y5S1 1-764): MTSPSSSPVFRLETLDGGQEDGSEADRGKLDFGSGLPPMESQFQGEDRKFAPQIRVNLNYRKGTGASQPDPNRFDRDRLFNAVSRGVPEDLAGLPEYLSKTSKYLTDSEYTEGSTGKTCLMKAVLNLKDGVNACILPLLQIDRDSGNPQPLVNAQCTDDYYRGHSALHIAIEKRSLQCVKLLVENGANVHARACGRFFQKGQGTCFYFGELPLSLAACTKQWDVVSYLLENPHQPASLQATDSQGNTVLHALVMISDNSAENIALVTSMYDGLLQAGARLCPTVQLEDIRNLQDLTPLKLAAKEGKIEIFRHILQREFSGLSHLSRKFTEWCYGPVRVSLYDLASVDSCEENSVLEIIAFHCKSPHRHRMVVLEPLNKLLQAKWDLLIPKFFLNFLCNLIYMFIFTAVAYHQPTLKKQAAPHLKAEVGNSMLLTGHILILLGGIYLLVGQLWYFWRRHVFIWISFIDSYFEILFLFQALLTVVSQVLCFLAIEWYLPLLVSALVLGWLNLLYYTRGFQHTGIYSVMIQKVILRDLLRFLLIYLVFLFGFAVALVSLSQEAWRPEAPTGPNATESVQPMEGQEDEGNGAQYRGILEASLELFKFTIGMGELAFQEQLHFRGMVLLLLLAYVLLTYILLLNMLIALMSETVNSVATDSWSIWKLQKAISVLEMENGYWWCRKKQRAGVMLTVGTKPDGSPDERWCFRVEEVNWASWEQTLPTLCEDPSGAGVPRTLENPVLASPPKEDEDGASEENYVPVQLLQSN
The data set is described as follows: TRP Family FLIPR Assay, TRPV2. The following applies: HEK293 cells (transient). The format is cell-based. The method, then:
as §1, §2, §3, §4

Values joined by “and” are separate entries in the source; they are usually repeats but may differ in a detail not shown here. Equal entries are not always repeated. A value given as a limit tells only on which side of the number the result lay.

Chain of recombinant human CYP3A4 enzyme (P08684 whole entry): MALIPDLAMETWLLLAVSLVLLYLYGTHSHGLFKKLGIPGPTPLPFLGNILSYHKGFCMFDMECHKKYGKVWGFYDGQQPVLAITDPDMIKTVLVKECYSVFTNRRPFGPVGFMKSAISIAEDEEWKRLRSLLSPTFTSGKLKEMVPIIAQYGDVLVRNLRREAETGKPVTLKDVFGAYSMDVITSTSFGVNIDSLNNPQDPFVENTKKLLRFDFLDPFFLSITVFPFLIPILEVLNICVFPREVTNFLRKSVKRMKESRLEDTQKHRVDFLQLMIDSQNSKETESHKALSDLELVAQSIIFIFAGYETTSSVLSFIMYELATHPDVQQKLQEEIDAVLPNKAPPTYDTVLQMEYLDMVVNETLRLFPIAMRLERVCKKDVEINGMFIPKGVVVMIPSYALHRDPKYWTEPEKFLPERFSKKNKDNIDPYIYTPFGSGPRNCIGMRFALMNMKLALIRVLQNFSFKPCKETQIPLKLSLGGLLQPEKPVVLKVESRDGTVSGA
T1 sequence (O75762 whole entry): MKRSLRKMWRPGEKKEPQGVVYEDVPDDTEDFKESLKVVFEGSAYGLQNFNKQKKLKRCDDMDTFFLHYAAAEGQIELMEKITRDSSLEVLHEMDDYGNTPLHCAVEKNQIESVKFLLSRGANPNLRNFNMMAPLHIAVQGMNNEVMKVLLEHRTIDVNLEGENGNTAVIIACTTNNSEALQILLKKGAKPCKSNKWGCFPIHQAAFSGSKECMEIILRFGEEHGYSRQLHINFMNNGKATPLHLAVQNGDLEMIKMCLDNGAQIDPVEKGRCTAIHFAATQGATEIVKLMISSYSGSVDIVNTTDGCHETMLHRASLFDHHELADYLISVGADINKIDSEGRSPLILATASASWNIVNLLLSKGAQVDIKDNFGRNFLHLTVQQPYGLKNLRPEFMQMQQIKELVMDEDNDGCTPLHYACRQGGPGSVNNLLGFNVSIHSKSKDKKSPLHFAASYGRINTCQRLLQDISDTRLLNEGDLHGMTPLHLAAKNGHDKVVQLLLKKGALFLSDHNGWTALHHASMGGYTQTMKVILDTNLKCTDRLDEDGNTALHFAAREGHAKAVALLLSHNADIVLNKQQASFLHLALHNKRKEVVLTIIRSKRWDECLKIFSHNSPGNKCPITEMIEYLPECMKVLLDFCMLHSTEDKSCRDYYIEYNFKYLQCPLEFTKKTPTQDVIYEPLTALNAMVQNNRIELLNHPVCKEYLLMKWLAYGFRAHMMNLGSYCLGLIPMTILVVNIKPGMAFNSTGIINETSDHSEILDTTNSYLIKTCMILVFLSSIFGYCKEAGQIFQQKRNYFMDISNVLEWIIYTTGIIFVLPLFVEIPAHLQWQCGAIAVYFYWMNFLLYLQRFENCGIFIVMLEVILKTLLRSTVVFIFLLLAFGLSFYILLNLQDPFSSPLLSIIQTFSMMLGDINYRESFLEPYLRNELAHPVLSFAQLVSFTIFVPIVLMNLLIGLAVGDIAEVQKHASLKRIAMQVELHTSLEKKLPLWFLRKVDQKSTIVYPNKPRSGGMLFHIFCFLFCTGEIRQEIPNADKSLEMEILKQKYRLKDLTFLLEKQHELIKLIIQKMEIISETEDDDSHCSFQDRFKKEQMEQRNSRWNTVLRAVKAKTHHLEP

`CC(C)(O)c1cnc(N2C[C@@]3(CC[C@@H](F)[C@](C)(Cn4cnc5ccc(C#N)cc54)C3)OC2=O)cn1` (single isomer, unassigned) [Example 5]: in data set [1] (100 pmol/mL recombinant human CYP3A4, 37° C., 0-25 min), the “CYP3A4 Clint” value was 0.09 μL/min/pmol CYP450 and < 0.07 μL/min/pmol CYP450. Besides, the “Metabolic Stability in Recombinant Human CYP3A4 + NADPH (% remaining after 25 min)” value in data set [1] (recombinant Human CYP3A4 + NADPH, 25 min) was determined as 100%. For the same compound, the EC50 (commonly the midpoint of the concentration-response curve) is over 10 µM in data set [2] (agonist mode, vs EMAX of mustard oil 600 μM, read-out: EC50 hTRPA1) and over 10 µM in data set [3] (agonist mode, vs EMAX of cannabidiol 300 μM, read-out: EC50 hTRPV2). Further, the IC50 (in general, the concentration at which inhibition is half-maximal) is over 10 µM in data set [2] (antagonist mode, activated with mustard oil 80 μM, 0.003-10 μM, read-out: IC50 hTRPA1) and over 10 µM in data set [3] (antagonist mode, activated with capsaicin 100 μM, 0.003-10 μM, read-out: IC50 hTRPV2).
